We go through 77 sequences from the OligoGym collection.

“And” between values parts separate entries of the source, which are not always exact repeats. Equal values may be shown once. After the bases stand the sugars from the 5' end (letter, count) and the backbone: PS all phosphorothioate, else s phosphorothioate and o phosphodiester by linkage. Methylation of C is not given here. e = 2'-O-(2-methoxyethyl) (MOE); d = 2'-deoxy (DNA)

In this data set the target is DGAT2. To be noted: ASO.

Regarding “CAGGTTGTGTGTCTTCACCA (sugars e5 d10 e5, PS)”, the target mRNA inhibition is 68% and 76% (HepG2, 0.12 µM); 74% (HepG2, 10 µM); 87% (HepG2, 20 µM). On to “GCACCAAGGAATGGTGTGTT (sugars e5 d10 e5, PS)”, for which the target mRNA inhibition was found to be 16% (HepG2, 2.5 µM) and 38% (HepG2, 10 µM). Consider “AAGGAAAACTTAGGCATGCT (sugars e5 d10 e5, PS)”, for which the target mRNA inhibition (HepG2, 2.5 µM) amounted to 63% and the target mRNA inhibition (HepG2, 10 µM) is 80%.

Under “HepG2, 0.12 µM”, “CCAGGGCCTCCATGTACATG (sugars e2 d13 e5, PS)” returned a target mRNA inhibition of 69%. Take “ACAGAAAAGTGAGGCTTGGG (sugars e5 d10 e5, PS)”: where the note is “HepG2, 0.12 µM”, the target mRNA inhibition is 40%.

Consider “AGAAAAACCAGTTACTCCAC (sugars e5 d10 e5, PS)”, for which the target mRNA inhibition (HepG2, 0.12 µM) worked out at 4%. As for “CGAAGATCACCTGCTTGTAC (sugars e5 d10 e5, PS)”, the target mRNA inhibition (HepG2, 0.12 µM) amounted to 63%.

For “ACAAAGTCTATCAGGATGCA (sugars e5 d10 e5, PS)”, the target mRNA inhibition was determined as 53% (HepG2, 2.5 µM) and 91% (HepG2, 10 µM). In turn, “TCCGCAGGGTGACTGCATTC (sugars e5 d10 e5, PS)” yielded a target mRNA inhibition (HepG2, 0.12 µM) of 48%. Sequence “AGAGCACAGCGATGAGCCAG (sugars e5 d10 e5, PS)” registered a target mRNA inhibition (HepG2, 2.5 µM) of 52% and a target mRNA inhibition (HepG2, 10 µM) of 85%. Take “GATAGCATTGCCACTCCCAT (sugars e2 d13 e5, PS)”: where the note is “HepG2, 0.12 µM”, the target mRNA inhibition was 62%. On the same count and under the same terms, to “GTGGTGATGGGCTTGGAGTA (sugars e5 d10 e5, PS)” belongs 23%; to “AGCCTGGACAAGTCCTGCCC (sugars e2 d13 e5, PS)”, 75%. The sequence “ATAATTTCTTTTAAATAACC (sugars e5 d10 e5, PS)” came in with a target mRNA inhibition (HepG2, 0.12 µM) of 0%. Still for that read-out and setting: to “AAGGCCGTATGCCTGGGAAC (sugars e5 d10 e5, PS)” belongs 25%; to “AGAAGGCACCCAGGCCCATG (sugars e5 d10 e5, PS)”, 38%. In the case of “CCCAGTACTTTCTTCTCATG (sugars e5 d10 e5, PS)”, the target mRNA inhibition was 72% (HepG2, 2.5 µM) and 96% (HepG2, 10 µM).

With “TGAGCTCTCAAGTCTTCCTC (sugars e5 d10 e5, PS)”, the target mRNA inhibition by setting is: (HepG2, 2.5 µM) 55%; (HepG2, 10 µM) 89%. With “GGCTCAGTTCACCTCCAGGA (sugars e5 d10 e5, PS)”, the target mRNA inhibition runs as follows: (HepG2, 2.5 µM) 56%; (HepG2, 10 µM) 90%.

As for “GAAATCCAATGCACCTTGTA (sugars e5 d10 e5, PS)”, the target mRNA inhibition (HepG2, 2.5 µM) turned out to be 63% and the target mRNA inhibition (HepG2, 10 µM) came to 94%. With “AGGACACCTGGAGCTGCGGC (sugars e5 d10 e5, PS)”, the target mRNA inhibition is, setting by setting: (HepG2, 2.5 µM) 42%; (HepG2, 10 µM) 84%. With “ACCTGGGTTTTTGTGTATTC (sugars e5 d10 e5, PS)”, the target mRNA inhibition by setting is: (HepG2, 2.5 µM) 86% and 87%; (HepG2, 10 µM) 86% and 90%.

Consider “CTGGACAAGTCCTGCCCATC (sugars e2 d13 e5, PS)”, for which, for the setting “HepG2, 0.12 µM”, the target mRNA inhibition turned out to be 58%.

With “GTTGTGTGTCTTCACCAGCT (sugars e3 d14 e3, PS)”, the target mRNA inhibition (HepG2, 0.12 µM) is 56%. As for “GCACCTTGTATTAAATACTC (sugars e5 d10 e5, PS)”, the target mRNA inhibition (HepG2, 2.5 µM) is 75% and the target mRNA inhibition (HepG2, 10 µM) turned out to be 91%.

On to “GAGATGGTGATAAGGCAGCA (sugars e5 d10 e5, PS)”, for which the target mRNA inhibition was 46% and 50% (HepG2, 2.5 µM); 80% (HepG2, 10 µM). For “CCCAGTTTCGGACCCACTGT (sugars e5 d10 e5, PS)”, the target mRNA inhibition reads like this: (HepG2, 0.12 µM) 85%; (HepG2, 2.5 µM) 24% and 25%; (HepG2, 10 µM) 33%; (HepG2, 20 µM) 57%.

Under “HepG2, 0.12 µM”, “TTATCCTTGAGGGTCTCATA (sugars e5 d10 e5, PS)” came in with a target mRNA inhibition of 45%. Where the note is “HepG2, 0.12 µM”, “GTTTCGGACCCACTGTGACC (sugars e2 d13 e5, PS)” displayed a target mRNA inhibition of 70%. Take “GGTAAGGCCAAGGAAGTGAG (sugars e5 d10 e5, PS)”: the target mRNA inhibition is 66% (HepG2, 2.5 µM) and 80% (HepG2, 10 µM). Sequence “AGGAGCCCTCCTCGAAGATC (sugars e5 d10 e5, PS)” had a target mRNA inhibition (HepG2, 0.12 µM) of 31%. On to “TGTGCTCTGTGGGCTCCTCC (sugars e5 d10 e5, PS)”, for which the target mRNA inhibition reads like this: (HepG2, 2.5 µM) 66%; (HepG2, 10 µM) 85%. On to “CAGTGCCTACAGCAGAGGGA (sugars e5 d10 e5, PS)”, for which the target mRNA inhibition (HepG2, 0.12 µM) turned out to be 0%. Same read-out and setting: to “ACCCACTGGAGCACTGAGAT (sugars e2 d13 e5, PS)” belongs 52%; to “CTGGACAAGTCCTGCCCATC (sugars e5 d10 e5, PS)”, 77%.

Where the note is “HepG2, 0.12 µM”, “TCATTCTCTCCAAAGGAGTA (sugars e5 d10 e5, PS)” registered a target mRNA inhibition of 18%. “GCAGCCTGGACAAGTCCTGC (sugars e2 d13 e5, PS)” came in with a target mRNA inhibition (HepG2, 0.12 µM) of 77%. Sequence “CTCAGAGACTCAGCCGCACC (sugars e2 d13 e5, PS)” returned a target mRNA inhibition (HepG2, 0.12 µM) of 43%. As to “ACCAGCCAGGCCCAGACCCA (sugars e5 d10 e5, PS)”, the target mRNA inhibition stood at 21% (HepG2, 2.5 µM) and 43% (HepG2, 10 µM). For the sequence “CCAACTCTCAGCTACTCCCC (sugars e5 d10 e5, PS)”, the target mRNA inhibition reads like this: (HepG2, 2.5 µM) 95%; (HepG2, 10 µM) 79%.

For “GCCTCGGTGTCCTCTCCTGT (sugars e5 d10 e5, PS)”, the target mRNA inhibition reads like this: (HepG2, 2.5 µM) 59%; (HepG2, 10 µM) 83%. “GCCTGGGAACTTCTTGCTCA (sugars e5 d10 e5, PS)”: the target mRNA inhibition (HepG2, 0.12 µM) came to 47%. As for “GTTGGGCAGTCACCATTTGC (sugars e5 d10 e5, PS)”, the target mRNA inhibition runs as follows: (HepG2, 2.5 µM) 21%; (HepG2, 10 µM) 58%. The corresponding values for “TGTCCTAGTGCCCCAGGGAG (sugars e5 d10 e5, PS)” are 48% and 79%.

Sequence “GGGTCCTCTCCGCTGCC (sugars e3 d10 e4, PS)” had a target mRNA inhibition (HepG2, 2.5 µM) of 47% and a target mRNA inhibition (HepG2, 10 µM) of 69%. “ATGAGGGTCTTCATGGCTGA (sugars e5 d10 e5, PS)” registered a target mRNA inhibition (HepG2, 0.12 µM) of 7%. On the same count and under the same terms, the same measure for “TCCGGTCAGCCTCGGCCTGA (sugars e5 d10 e5, PS)”: 20%; for “AGATGCCACTTCATCAAGGC (sugars e5 d10 e5, PS)”: 24%.

For “TCCTTTGAAATCCAATGCAC (sugars e5 d10 e5, PS)”, the target mRNA inhibition was 75% and 63% (HepG2, 2.5 µM); 87% and 77% (HepG2, 10 µM). Consider “TTGGTCTTTTTGGCTGCCCT (sugars e5 d10 e5, PS)”, for which, under “HepG2, 10 µM”, the target mRNA inhibition was 85% and 82%. Turning to “GGCTTGGAGTAGGGCACCAG (sugars e5 d10 e5, PS)”, the target mRNA inhibition (HepG2, 0.12 µM) is 56%. The same measure, in the same setting: to “GTCATCCAGTATAGCCTAAT (sugars e5 d10 e5, PS)” belongs 44%; to “CTGGATGGGAAAGTAGTCTC (sugars e5 d10 e5, PS)”, 38%.

As to “GCTAGGACACCTGGAGCTGC (sugars e5 d10 e5, PS)”, the target mRNA inhibition (HepG2, 10 µM) was 95% and 80% and 96%. Take “TTCTGTGGCCTCTGTGCTGA (sugars e5 d10 e5, PS)”: the target mRNA inhibition (HepG2, 0.12 µM) stood at 25%. In the case of “AGCAGTCTGCCTGATTCCCT (sugars e5 d10 e5, PS)”, the target mRNA inhibition (HepG2, 2.5 µM) is 69% and 44%; the target mRNA inhibition (HepG2, 10 µM) was 87% and 82%.

With “CGGACTGAATGTCACCT (sugars e3 d10 e4, PS)”, the target mRNA inhibition is 60% and 68% (HepG2, 2.5 µM); 87% and 83% (HepG2, 10 µM). Regarding “AGCCTGGACAAGTCCTGCCC (sugars e5 d10 e5, PS)”, the target mRNA inhibition (HepG2, 0.12 µM) is 79%; the target mRNA inhibition (HepG2, 20 µM) is 79% and 92% and 91%. Where the note is “HepG2, 0.12 µM”, “GCAGGACCCCGGAGTAGGCG (sugars e3 d14 e3, PS)” yielded a target mRNA inhibition of 70%.

As to “CTGCCATTTAATGAGCTTCA (sugars e5 d10 e5, PS)”, the target mRNA inhibition (HepG2, 10 µM) is 94% and 95% and 89%. As to “CATTGCCACTCCCATTCTTT (sugars e3 d14 e3, PS)”, the target mRNA inhibition (HepG2, 0.12 µM) came to 46%. For the sequence “GCCTTGGGAAGTCTCTCATA (sugars e5 d10 e5, PS)”, the target mRNA inhibition was 0% (HepG2, 2.5 µM) and 58% (HepG2, 10 µM). Consider “GGAGCTCAGAGACTCAGCCG (sugars e3 d14 e3, PS)”, for which the target mRNA inhibition (HepG2, 0.12 µM) was 81%; the target mRNA inhibition (HepG2, 2.5 µM) amounted to 17%; the target mRNA inhibition (HepG2, 10 µM) is 53%; the target mRNA inhibition (HepG2, 20 µM) worked out at 25%. The sequence “TAGCCTGGCTTTGATAACCC (sugars e5 d10 e5, PS)” displayed a target mRNA inhibition (HepG2, 0.12 µM) of 42%. As to “TAGCCAGGTAAGGCCGTATG (sugars e5 d10 e5, PS)”, the target mRNA inhibition (HepG2, 0.12 µM) is 56% and 60%. In turn, “GGGATGATAAACACTAAGGT (sugars e5 d10 e5, PS)” gave a target mRNA inhibition (HepG2, 0.12 µM) of 37%. In the case of “CCCTCTTAGAAGTAATGCTT (sugars e5 d10 e5, PS)”, the target mRNA inhibition (HepG2, 10 µM) was 85% and 89%.

The sequence “GCCCTCCTCGAAGATCACCT (sugars e5 d10 e5, PS)” came in with a target mRNA inhibition (HepG2, 2.5 µM) of 37% and a target mRNA inhibition (HepG2, 10 µM) of 76%. With “CAGCAGATGATGTCCTGCCT (sugars e5 d10 e5, PS)”, the target mRNA inhibition turned out to be 66% (HepG2, 2.5 µM) and 88% (HepG2, 10 µM). For the sequence “TCAGTTCACCTCCAGGACCT (sugars e5 d10 e5, PS)”, the target mRNA inhibition (HepG2, 0.12 µM) was found to be 46%. Where the note is “HepG2, 0.12 µM”, “GGAGCCCTCACAGGGCCAGG (sugars e5 d10 e5, PS)” gave a target mRNA inhibition of 38%. Sequence “TTCTGGAACTTCTTCTGGAC (sugars e5 d10 e5, PS)” had a target mRNA inhibition (HepG2, 0.12 µM) of 37%. “TGGCTGGGAGGAGTCCAGCA (sugars e5 d10 e5, PS)” displayed a target mRNA inhibition (HepG2, 0.12 µM) of 10%. As for “GCAGGTTCATCTGCCTTGAC (sugars e5 d10 e5, PS)”, the target mRNA inhibition was 80% and 65% (HepG2, 2.5 µM); 81% and 85% (HepG2, 10 µM). “GTAGCTGCTTTTCCACCTTG (sugars e5 d10 e5, PS)” had a target mRNA inhibition (HepG2, 0.12 µM) of 43%. For the sequence “GGATGTGTCATTTCCCCTGG (sugars e5 d10 e5, PS)”, the target mRNA inhibition runs as follows: (HepG2, 2.5 µM) 66%; (HepG2, 10 µM) 96%. Turning to “TGCCAATGCCTAGGTCA (sugars e3 d10 e4, PS)”, the target mRNA inhibition is, setting by setting: (HepG2, 2.5 µM) 82% and 74%; (HepG2, 10 µM) 70% and 89%.
